In US20050089573A1, “Oral pharmaceutical formulation containing ibandronate” (F. HOFFMANN-LA ROCHE, priority 1996, published 2005):

Assay: clinical studies using ibandronate in rapidly releasing coated oral administration forms (tolerability)
Type: in vivo, patients
Text: The film dissolving upon contact with digestive juice is preferably a coating which dissolves pH-independently. The adjuvant coating may be coated using methods common in pharmaceutical technology. […] This is particularly advantageous since the administration forms of the invention are also well-tolerated by patients lying in bed.

[1] = administration forms coated with a film which quickly releases the active substance

What does the source list for CCCCCN(C)CCC(O)(P(=O)(O)O)P(=O)(O)O [ibandronate, 1-hydroxy-3-(N-methyl-N-pentyl)aminopropyl-1,1-diphosphonic acid]?
irritations in the oesophagus when swallowing the tablets [1]: no irritations in the oesophagus; oesophagitis [1]: does not occur; cases of nausea, vomiting, pain or diarrhoea (patients treated with rapidly releasing administration forms, compared to what is otherwise observed when administering aminobisphosphonates): significantly less cases; side effects observed in clinical studies (peroral forms coated with film that dissolves pH-independently, even at high dosages): no significant side effects
